# According to patent publication US4049665A, “Unsymmetrical disulfides as antimicrobial agents” (Colgate-Palmolive Company, priority 1975, dated 1977):
# Read-outs that look alike come from different tables or passages of the source.
# Key:
# A. niger = assay: two-fold serial dilution test, minimum inhibitory concentration (Table I); type: cell-based; conditions: Aspergillus niger, A. niger (Mold), 1% solution in 95% ethyl alcohol
# Source text: (§1) *Data indicates minimum inhibitory concentration in parts per million
# (§2) tested by the two-fold serial dilution text method utilizing 1% solution
# (§3) of the test material in 95% ethyl alcohol.
# E. coli = assay: as above; type: cell-based; conditions: Escherichia coli, read-out: minimum inhibitory concentration
# Source text: as §1, §2, §3
# Ps. aeruginosa = assay: as above; type: cell-based; conditions: Pseudomonas aeruginosa, Ps. aeruginosa (Gram Negative), 1% solution in 95% ethyl alcohol
# Source text: as §1, §2, §3
# S. aureus = assay: as above; type: cell-based; conditions: Staphylococcus aureus, read-out: minimum inhibitory concentration
# Source text: as §1, §2, §3
# Str. mitis = assay: as above; type: cell-based; conditions: Streptococcus mitis, Str. mitis (Gram Positive), 1% solution in 95% ethyl alcohol
# Source text: as §1, §2, §3
# C. albicans = assay: as above; type: cell-based, Candidia albicans; conditions: Candida albicans, C. albicans (Yeast), 1% solution in 95% ethyl alcohol
# Source text: as §1, §2, §3
# P. ovale = assay: as above; type: cell-based; conditions: Pityrosporum ovale, P. ovale (Yeast), 1% solution in 95% ethyl alcohol
# Source text: as §1, §2, §3
# T. mentagrophytes = assay: as above; type: cell-based; conditions: Trichophyton mentagrophytes, T. mentagrophytes (Mold), 1% solution in 95% ethyl alcohol
# Source text: as §1, §2, §3
# microorganisms = assay: antimicrobial properties of shampoo compositions; conditions: substituted for 4-chlorphenyl 1-oxo-2-pyridyl disulfide in shampoo of Example VII
# soil and foliage fungi = conditions: U.S. Pat. No. 2,922,790; soil and foliage fungicides; cited from earlier work
molecule,measurement,setting,value
[O-][n+]1ccccc1SSc1cccc[n+]1[O-],MIC,A. niger,62.5 µg/mL
same,MIC,E. coli,62.5 µg/mL
same,MIC,Ps. aeruginosa,250 µg/mL
same,MIC,S. aureus,7.8 µg/mL
same,MIC,Str. mitis,31.2 µg/mL
same,MIC,C. albicans,31.2 µg/mL
[O-][n+]1ccccc1SSc1ccccc1,MIC,A. niger,15.6 µg/mL
same,MIC,"E. coli; E. coli (Gram Negative), 1% solution in 95% ethyl alcohol, two-fold serial dilution",31.2 µg/mL
same,MIC,P. ovale,0.1 µg/mL
same,MIC,Ps. aeruginosa,250 µg/mL
same,MIC,"S. aureus; S. aureus (Gram Positive), 1% solution in 95% ethyl alcohol, two-fold serial dilution",3.9 µg/mL
same,MIC,Str. mitis,15.6 µg/mL
same,MIC,T. mentagrophytes,15.6 µg/mL
same,MIC,C. albicans,> 1000 µg/mL
[O-][n+]1ccccc1SSCc1ccc(Cl)cc1Cl,MIC,A. niger,15.6 µg/mL
same,MIC,E. coli,31.2 µg/mL
same,MIC,Ps. aeruginosa,125 µg/mL
same,MIC,S. aureus,< 0.5 µg/mL
same,MIC,Str. mitis,7.8 µg/mL
same,MIC,T. mentagrophytes,3.9 µg/mL
same,MIC,C. albicans,7.8 µg/mL
[O-][n+]1ccccc1SSc1ccc(Cl)cc1,MIC,P. ovale,3.9 µg/mL
[O-][n+]1ccccc1SSc1ccc(Cl)c(Cl)c1,MIC,P. ovale,15.6 µg/mL
[O-][n+]1ccccc1SSCc1ccc(Cl)cc1,MIC,P. ovale,1.9 µg/mL
[O-][n+]1ccccc1SSCc1ccc(Cl)c(Cl)c1,MIC,P. ovale,3.9 µg/mL
"CCCCCCCCCCCCSSc1cccc[n+]1[O-] [dodecyl 1-oxo2-pyridyl disulfide, Dodecyl 1-oxo-2-pyridyl disulfide]",antimicrobial properties of the resultant shampoo,microorganisms,substantially similar antimicrobial properties
"CCCCCCSSc1cccc[n+]1[O-] [hexyl 1-oxo-2-pyridyl disulfide, Hexyl 1-oxo-2-pyridyl disulfide]",antimicrobial properties of the resultant shampoo,microorganisms,substantially similar antimicrobial properties
"COc1ccc(SSc2cccc[n+]2[O-])cc1 [p-methoxyphenyl 1oxo-2-pyridyl disulfide, p-Methoxyphenyl 1-oxo-2-pyridyl disulfide]",antimicrobial properties of the resultant shampoo,microorganisms,substantially similar antimicrobial properties
Decenyl 1-oxo-2-pyridyl disulfide,antimicrobial properties of the resultant shampoo,microorganisms,substantially similar antimicrobial properties
pyridine-1-oxide trichloromethyl disulfide,pesticidal properties,soil and foliage fungi,pesticidal properties desirable in soil and foliage fungicides
